Data as given in patent publication US20260184675A1, “CHIRAL ISOMERIC SULFITE COMPOUND AND APPLICATION THEREOF” (Chengdu Hanova BioSciences Co., Ltd, priority 2024, published 2026).

How the values were obtained:
[1] = system: eggs of Spodoptera litura; assay: Effect on hatching of eggs of Spodoptera litura, egg piece soaking; assay type: in vivo; conditions: 500 ppm; for Hatching rate (%), Replicate 1 / Hatching rate (%), Replicate 2 / Hatching rate (%), Replicate 3 / Number of unhatched larvae 4 days after insecticide delivery, Replicate 1 / Number of unhatched larvae 4 days after insecticide delivery, Replicate 2 / Number of unhatched larvae 4 days after insecticide delivery, Replicate 3: Spodoptera litura eggs; for Hatching rate (%), Replicate 1 / Hatching rate (%), Replicate 2 / Hatching rate (%), Replicate 3: 4 days after delivery; for Number of unhatched larvae 4 days after insecticide delivery, Replicate 1 / Number of unhatched larvae 4 days after insecticide delivery, Replicate 2 / Number of unhatched larvae 4 days after insecticide delivery, Replicate 3: soaked 10 minutes
Description: • (1) Preparation of paper containing eggs: the egg mass was cut into small pieces, each containing about 60 eggs, soaked in a preformulated test agent for 10 minutes together with paper for egg raising (concentration of each compound of 500 ppm). After taken out, absorbent paper was used to absorb the excess solution adhered to the paper for egg raising and egg pieces. (2) Cultivation: Each egg piece was separately placed in a glass test tube (5.0 cm in height, 2.5 cm in diameter, the same below), which was sealed with plastic paper punctured with fine holes using insect needles and cultivated in an artificial climate chamber at a temperature of (24±1° C.), a relative humidity of (80±10) %, and a photoperiod of L:D=12:12. When the eggs developed until they were about to hatch, castor leaves with a diameter of about 3 cm were added for feeding the hatching larvae; • (3) Observation: the number of hatched and unhatched eggs per egg piece was checked and recorded, and the hatching rate of eggs was calculated according to the formula. Each treatment was repeated for 3 times. • (4) Survey of results: The experimental materials of each treatment group were regularly hydrated and moisturized, and the hatching of eggs was observed. On the 4th day after insecticide delivery, the number of hatched eggs for each treatment was recorded, and the survey of results was recorded in the original notebook. According to the experimental requirements and characteristics of agents, the survey time can be shortened or extended. • 1) Surveying and recording the number of hatched eggs for each treatment. • 2) Recording the developmental status of experimental eggs of Spodoptera litura, behavior status of nymphs, including abnormal phenomena such as delayed or stopped development of eggs of Spodoptera litura, etc. • (5) Calculation method: Based on the survey data, the prevention and control effect of each treatment was calculated according to the following formula, and the calculation results were kept to two decimal places. [formula] [formula]

[2] = system: eggs of Harmonia axyridis; assay: Effect on hatching of eggs of Harmonia axyridis, egg card immersion; assay type: in vivo; conditions: 100 ppm; for Number of hatched larvae 4 days after insecticide delivery, Replicate 1 / Number of hatched larvae 4 days after insecticide delivery, Replicate 2 / Number of hatched larvae 4 days after insecticide delivery, Replicate 3: Harmonia axyridis egg cards, immersed 30 seconds; for Hatching rate (%), Replicate 1 / Hatching rate (%), Replicate 2 / Hatching rate (%), Replicate 3: Harmonia axyridis eggs, 4 days after delivery
Source text: The eggs of Harmonia axyridis cards (with approximately 20 eggs per card) were purchased from Henan Jiyuan Baiyun Industry Co., Ltd. in Henan Province. The number of eggs on the egg cards was counted as the basic number before insecticide delivery, and 5 cards were used as one treatment, with 3 replicates per treatment. After immersing the egg cards in a 100 ppm insecticide solution for 30 seconds, they were taken out and air dried, then cultivated under moisturizing conditions, and the […] were cultivated at 27° C. 4 days after insecticide delivery, the hatching status of eggs of Harmonia axyridis was investigated, and the prevention and control effect was calculated according to the following formula. [formula] [formula]

eggs of Thrips = assay: Effect on hatching of eggs of Thrips, leaf disc method; assay type: in vivo; conditions: 100 ppm; for Hatching rate (%): 5 days after insecticide delivery
Description: (§1) • (1) Preparation of leaf discs containing eggs: 20 female adult mites of Tetranychus cinnabarinus were transferred onto leaf discs of Vicia faba with a diameter of 2.0 cm (with wetted filter paper at the bottom), then covered it with a lidded culture dish and cultivated under moisturizing conditions, the adult mites were removed within 36 hours and microscopic examination and counting were performed on leaf discs containing eggs. • (2) Investigation of egg population base: Before pesticide soaking, a microscopic examination was conducted on the egg basic number of each leaf disc, with 2 replicates set for each treatment. • (3) Pesticide soaking treatment: The leaf butterflies loaded with mite eggs were soaked in clear water and sulfite compounds for 10 seconds, respectively, then taken out and cultivated under moisturizing conditions. Each treatment should be repeated for no less than 3 times. • (4) Cultivation and observation: The […] were cultivated under normal conditions. Five days after insecticide delivery, the hatching status of mite eggs was investigated. • Note: The temperature and humidity conditions of the constant temperature and humidity incubator after the treatment should be controlled so as to avoid excessive temperature differences, which may cause generation and dripping of condensate water in the culture dish, resulting in abnormal death of eggs due to soaking in water; it is also necessary to ensure sufficient strong ambient light, without directing irradiating the leaves. • (5) Survey of Results: The experimental materials of each treatment group were regularly hydrated and moisturized, and the hatching of eggs was observed. On the 7th day after insecticide delivery, the number of hatched eggs for each treatment was recorded, and the survey of results was recorded in the original notebook. According to the experimental requirements and characteristics of agents, the survey time can be shortened or extended.
(§2) • 1) Surveying and recording the number of hatched eggs for each treatment. • 2) Photographing and recording whether there was any pesticide damage to the leaf discs of Vicia faba. • 3) Recording the developmental status of experimental mite eggs, behavior status of nymph mites, including abnormal phenomena such as delayed or stopped development of mite eggs, difficulty in breaking hull for nymph mites, or painful struggles after hatching, etc. • (6) Calculation method: Based on the survey data, the prevention and control effect of each treatment was calculated according to the following formula, and the calculation results were kept to two decimal places.
(§3) This test adopted the method in Test Example 1 of technical section, mainly used leaf disc method to explore the inhibitory effect on hatching of eggs of Thrips by 1-(S,S), 1-(S,R), 1-(R,R), 1-(R,S), 1′-(S,S), 1′-(S,R), 1′-(R,R), 1′-(R,S), compound 1, compound 1′, S-10, R-10, S-10′, R-10′, compound 10, compound 10′, compound 19-(S,S), 19-(S,R), 19-(R,R), 19-(R,S), 19′-(S,S), 19′-(S,R), 19′-(R,R), 19′-(R,S), compound 19, and compound 19′. The concentration of all compounds was 100 ppm.

Magnaporthe grisea = assay type: cell-based; conditions: 100 ppm; for Average antifungal rate (%) / Antifungal rate of Magnaporthe grisea (%), Replicate 1 / Antifungal rate of Magnaporthe grisea (%), Replicate 2 / Antifungal rate of Magnaporthe grisea (%), Replicate 3: 96-well plate; for Average antifungal rate (%): average of 3 replicates
eggs of Aleyrodidae = assay: Effect on hatching of eggs of Aleyrodidae, leaf disc method; assay type: in vivo; conditions: 10 ppm; for Hatching rate (%), Replicate 1 / Hatching rate (%), Replicate 2 / Hatching rate (%), Replicate 3 / Number of hatched larvae 5 days after insecticide delivery, Replicate 1 / Number of hatched larvae 5 days after insecticide delivery, Replicate 2 / Number of hatched larvae 5 days after insecticide delivery, Replicate 3: Aleyrodidae eggs; for Hatching rate (%), Replicate 1 / Hatching rate (%), Replicate 2 / Hatching rate (%), Replicate 3: 5 days after delivery; for Number of hatched larvae 5 days after insecticide delivery, Replicate 1 / Number of hatched larvae 5 days after insecticide delivery, Replicate 2 / Number of hatched larvae 5 days after insecticide delivery, Replicate 3: leaf disc
Description: as §1, §2
as §3, with “Aleyrodidae” for “Thrips”, “by compounds” for “by”, “10” for “100”

[3] = Replicate 1, listed as 1-(S, R)
[4] = Replicate 2, listed as 1-(S, R)
[5] = Replicate 3, listed as 1-(S, R)
[6] = Replicate 1, listed as 1-(S, S)
[7] = Replicate 2, listed as 1-(S, S)
[8] = Replicate 3, listed as 1-(S, S)

## C[C@@H](COS(=O)OCCF)Oc1ccc(Cl)cc1Cl (stereo partly drawn) [1-(S,R)]
[1]; listed as 1-(S, R)
  Hatching rate (%), Replicate 1: 62.30%
  Hatching rate (%), Replicate 2: 63.08%
  Hatching rate (%), Replicate 3: 60.34%
  Number of unhatched larvae 4 days after insecticide delivery, Replicate 1: 23
  Number of unhatched larvae 4 days after insecticide delivery, Replicate 2: 24
  Number of unhatched larvae 4 days after insecticide delivery, Replicate 3: 23
[2]; listed as 1-(S, R)
  Number of hatched larvae 4 days after insecticide delivery, Replicate 1: 13
  Number of hatched larvae 4 days after insecticide delivery, Replicate 2: 14
  Number of hatched larvae 4 days after insecticide delivery, Replicate 3: 14
  Hatching rate (%), Replicate 1: 12.04%
  Hatching rate (%), Replicate 2: 14.14%
  Hatching rate (%), Replicate 3: 13.73%
Eggs of Thrips; [3]
  Hatching rate (%): 12.06%
  Number of hatched larvae 5 days after insecticide delivery: 17
Eggs of Thrips; [4]
  Hatching rate (%): 8.33%
  Number of hatched larvae 5 days after insecticide delivery: 8
Eggs of Thrips; [5]
  Hatching rate (%): 10.28%
  Number of hatched larvae 5 days after insecticide delivery: 11
Magnaporthe grisea
  inhibitory rate against Magnaporthe grisea (in words): strong inhibitory rate
  Average antifungal rate (%): 82.92%
  Antifungal rate of Magnaporthe grisea (%), Replicate 1: 87.32%
  Antifungal rate of Magnaporthe grisea (%), Replicate 2: 82.96%
  Antifungal rate of Magnaporthe grisea (%), Replicate 3: 78.48%
Eggs of Aleyrodidae; listed as 1-(S, R)
  Hatching rate (%), Replicate 1: 9.65%
  Hatching rate (%), Replicate 2: 9.38%
  Hatching rate (%), Replicate 3: 10.48%
  Number of hatched larvae 5 days after insecticide delivery, Replicate 1: 11
  Number of hatched larvae 5 days after insecticide delivery, Replicate 2: 12
  Number of hatched larvae 5 days after insecticide delivery, Replicate 3: 11

## C[C@@H](COS(=O)OCCF)Oc1ccc(Cl)cc1Cl (stereo partly drawn) [1-(S,S)]
[1]
  inhibitory activity on the hatching of eggs of Spodoptera litura (in words): good inhibitory activities
[1]; listed as 1-(S, S)
  Hatching rate (%), Replicate 1: 23.73%
  Hatching rate (%), Replicate 2: 26.15%
  Hatching rate (%), Replicate 3: 20.69%
  Number of unhatched larvae 4 days after insecticide delivery, Replicate 1: 45
  Number of unhatched larvae 4 days after insecticide delivery, Replicate 2: 48
  Number of unhatched larvae 4 days after insecticide delivery, Replicate 3: 46
[2]
  inhibitory activity on the hatching of eggs of Harmonia axyridis (in words): strong inhibitory activities
[2]; listed as 1-(S, S)
  Number of hatched larvae 4 days after insecticide delivery, Replicate 1: 0
  Number of hatched larvae 4 days after insecticide delivery, Replicate 2: 0
  Number of hatched larvae 4 days after insecticide delivery, Replicate 3: 0
  Hatching rate (%), Replicate 1: 0.00%
  Hatching rate (%), Replicate 2: 0.00%
  Hatching rate (%), Replicate 3: 0.00%
Eggs of Thrips
  inhibitory activity on the hatching of eggs of Thrips (in words): strong inhibitory activities
Eggs of Thrips; [6]
  Hatching rate (%): 0.00%
  Number of hatched larvae 5 days after insecticide delivery: 0
Eggs of Thrips; [7]
  Hatching rate (%): 0.00%
  Number of hatched larvae 5 days after insecticide delivery: 0
Eggs of Thrips; [8]
  Hatching rate (%): 0.00%
  Number of hatched larvae 5 days after insecticide delivery: 0
Magnaporthe grisea
  inhibitory rate against Magnaporthe grisea (in words): strong inhibitory rate
  Average antifungal rate (%): 97.35%
  Antifungal rate of Magnaporthe grisea (%), Replicate 1: 99.38%
  Antifungal rate of Magnaporthe grisea (%), Replicate 2: 95.02%
  Antifungal rate of Magnaporthe grisea (%), Replicate 3: 97.64%
Eggs of Aleyrodidae
  inhibitory activity on the hatching of eggs of Aleyrodidae (in words): strong inhibitory activities
Eggs of Aleyrodidae; listed as 1-(S, S)
  Hatching rate (%), Replicate 1: 0.00%
  Hatching rate (%), Replicate 2: 0.00%
  Hatching rate (%), Replicate 3: 0.00%
  Number of hatched larvae 5 days after insecticide delivery, Replicate 1: 0
  Number of hatched larvae 5 days after insecticide delivery, Replicate 2: 0
  Number of hatched larvae 5 days after insecticide delivery, Replicate 3: 0
